Molecules are shown by their SMILES.

One compound from patent US20260262647A1, “Synergistic Compositions Containing Guanidine” (Thor GmbH, priority 2023, published 2026) can be followed below.

What all share (assay type): cell-based
Assay [1] deals with Pseudomonas putida DSM 115323. As to the kind of experiment: Minimum inhibitory concentrations and synergy index in Müller-Hinton broth. The method, then: Test organisms used were Gram-negative bacterial species from the group of pseudomonads, Pseudomonas putida DSM 115323 and Pseudomonas spec. DSM 115322. For this purpose, mixtures with different concentrations of the respective active substances were prepared and tested for their effect on the pseudomonads. The test was run in Müller-Hinton broth MHB with a cell density of 10^6 microbes per ml. When organic acids are used as a combination partner with the guanidine, MHB was adjusted to pH 5.5.
The incubation was run in microplates at 30° C. for 48 hours. After 48 hours, the batches were evaluated for turbidity resulting from growth, and optical density was additionally determined photometrically. In this way, the minimum inhibitory concentrations (MICs) of the two actives were determined individually and in combination.
The calculation was done according to the standard method of F. C. Kull et al., Applied Microbiology, vol. 9 (1961), p. 538.
This involves calculating the synergy index (SI) by the following formula:
[formula] • Qa=concentration of component A in the A+B mixture • QA=concentration of component A as the sole biocide • Qb=concentration of component B in the A+B mixture • QB=concentration of component B as the sole biocide
If the synergy index is greater than 1, this means that there is antagonism. If the synergy index assumes the value 1, this means that the effect of the two biocides/compounds is additive. If the synergy index assumes a value of less than 1, this means that there is synergism between the two biocides/compounds.

In another assay the test system is bacteria mixture B. The assay can be described thus: Emulsion paint inoculated once with bacteria mixture B, semiquantitative growth evaluation. More on the design: key: 0: No growth; Minimal growth, 1 to 10 colonies visible over the entire streak; 2: Light growth, maximum 100 colonies; Moderate growth, maximum 300 to 400 colonies; Uniform growth, >400 colonies, single colonies still clearly recognizable; 5: Heavy growth, too many colonies to count, but no growth over the entire streak; 6: Full growth, barely any single colonies still apparent, growth over the entire streak. The conditions noted are these: +6000 ppm guanidine hydrochloride (3708 ppm guanidine). The source says: In examples 35 to 38 below, synergistic interaction between guanidine and antimicrobial substances with respect to microbial infestation was studied using an emulsion paint and a laundry detergent or cleaning composition by adding particular amounts of guanidine salts and isothiazolinones and examining their stability against microbial infestation: […] The laundry detergent was a heavy-duty laundry detergent without preservatives (pH 8.1), and the cleaning composition was an all-purpose detergent without preservatives (pH 7.6), each likewise made in the laboratory, without addition of the otherwise usual conventional preservatives. To each paint was added—individually and in combination—particular concentrations of guanidinium hydrochloride, benzisothiazolinone (BIT), and a mixture of chloromethylisothiazolinone (CIT) and methylisothiazolinone (MIT). The laundry detergent and the cleaning composition were admixed with particular concentrations of guanidinium hydrochloride and benzisothiazolinone (BIT). The resultant batches of the paint thus prepared were inoculated with a mixture of different bacteria species (bacteria mixture B); the batches of the laundry detergent and cleaning compositions thus prepared were inoculated with a yeast mixture. • Pseudomonas spp. (Pseudomonas oleovorans group) DSM 33933 • Pseudomonas aeruginosa DSM 33935 • Pseudomonas oleovorans DSM 33936 • Pseudomonas spec. DSM 33937 • Pseudomonas aeruginosa DSM 33938 […] The cell suspension of the bacteria mixture was produced by growing the individual bacteria at 30° C. for 24 h in liquid culture on a shaker. The growth medium used for the bacteria was Müller-Hinton liquid medium. After growing, the individual liquid cultures were centrifuged, and the cells were resuspended in physiological saline solution. […] The cell count of the inoculum was determined in each case by chamber counting. […] The streaked agar plates were then incubated at 30° C. for 48 hours (bacteria) or at 25° C. for 72 hours (yeasts). After incubation, the bacterial or yeast colonies that have grown on the agar plates were visually evaluated and quantified according to the following scheme: [table]

The subject of a further assay is yeast mixture. The assay can be described thus: All-purpose detergent inoculated once with yeast mixture, semiquantitative growth evaluation. More on the design: key: 0: No growth; Minimal growth, 1 to 10 colonies visible over the entire streak; 2: Light growth, maximum 100 colonies; Moderate growth, maximum 300 to 400 colonies; Uniform growth, >400 colonies, single colonies still clearly recognizable; 5: Heavy growth, too many colonies to count, but no growth over the entire streak; 6: Full growth, barely any single colonies still apparent, growth over the entire streak. The conditions noted are these: Example 38, all-purpose detergent, +8000 ppm guanidine hydrochloride (4944 ppm guanidine). The source says: In examples 35 to 38 below, synergistic interaction between guanidine and antimicrobial substances with respect to microbial infestation was studied using an emulsion paint and a laundry detergent or cleaning composition by adding particular amounts of guanidine salts and isothiazolinones and examining their stability against microbial infestation: […] The laundry detergent was a heavy-duty laundry detergent without preservatives (pH 8.1), and the cleaning composition was an all-purpose detergent without preservatives (pH 7.6), each likewise made in the laboratory, without addition of the otherwise usual conventional preservatives. To each paint was added—individually and in combination—particular concentrations of guanidinium hydrochloride, benzisothiazolinone (BIT), and a mixture of chloromethylisothiazolinone (CIT) and methylisothiazolinone (MIT). The laundry detergent and the cleaning composition were admixed with particular concentrations of guanidinium hydrochloride and benzisothiazolinone (BIT). The resultant batches of the paint thus prepared were inoculated with a mixture of different bacteria species (bacteria mixture B); the batches of the laundry detergent and cleaning compositions thus prepared were inoculated with a yeast mixture. • Pichia manshurica DSM 12249 • Rhodotorula mucilaginosa DSM 12248 • Candida boidinii DSM 13622 • Candida albicans DSM 1386 […] Further steps for establishment of a cell count of the inoculum suspension of 10^8/ml were effected analogously to the production of the bacteria suspension. […] The streaked agar plates were then incubated at 30° C. for 48 hours (bacteria) or at 25° C. for 72 hours (yeasts). After incubation, the bacterial or yeast colonies that have grown on the agar plates were visually evaluated and quantified according to the following scheme: [table]

Take `N=C(N)N` [guanidine]: the “QA: Concentration of guanidine as the sole agent that shows an endpoint” value in assay [1] (guanidine (added as guanidine hydrochloride) alone, 48 hours at 30° C.) is 6180 ppm. For the same compound, the “Synergy index Qa/QA + Qb/QB” value in assay [1] (guanidine and CIT, Qa, Qb) was 1.00. Besides, the Bacterial growth stood at 6 in the assay with bacteria mixture B (Example 35, emulsion paint, Day 1); 6 in the assay with bacteria mixture B (Example 35, emulsion paint, Day 6); 6 in the assay on bacteria mixture B (Example 36, emulsion paint, Day 1); 6 in the assay on bacteria mixture B (Example 36, emulsion paint, Day 6). The Yeast growth was 6 in the assay on yeast mixture (Day 1) and 4 (Uniform growth, >400 colonies, single colonies still clearly recognizable) in the assay on yeast mixture (Day 3).
